Source: US20110060043A1, “INHIBITORS OF CELL PROLIFERATION AND USES THEREOF” (European Molecular Biology Laboratory (EMBL), priority 2008, published 2011)

tested on: MCF-7 cells; experiment: Cytotoxicity assay (ATPLite cell viability, 72 h) on MCF-7 cells; assay type: cell-based; settings: Homo sapiens, MCF7; 72 hours incubation, triplicate, ATP levels (ATPLite), inhibition of growth vs DMSO only control
Protocol: Preferred compounds were analyzed for their ability to inhibit growth of tumour cells (e.g. MCF7, HL60, LL2, HeLa, PC-3, A549 and A375 cells) in vitro. Growth inhibition was tested at various concentrations in a 10 point two fold serial dilution and cells were incubated under standard mammalian tissue culture conditions for 72 hours in triplicate. Cell viability was measured by measuring ATP levels in viable cells using the ATPLite kit (PerkinElmer) as described in the user manual. Raw data was transformed to percentage inhibition of growth compared to a DMSO only control and values were expressed as IC50 in micromolar calculated using XLfit (IDBS).

Row | Compound | IC50 [nM]
1 | COC(=O)c1ccc(C)c(NS(=O)(=O)c2ccc(Cl)cc2)c1 [Compound (VI), 3-[[(4-chlorophenyl)sulfonyl]amino]-4-methyl-benzoic acid methyl ester] | 1100
2 | COC(=O)c1ccc(C)c(NS(=O)(=O)c2ccc(OC)cc2)c1 [Compound (IV), 3-[[(4-methoxyphenyl)sulfonyl]amino]-4-methyl-benzoic acid methyl ester] | 230
3 | COC(=O)c1ccc(C)c(NS(=O)(=O)c2ccc(C)cc2)c1 [Compound (IX), 3-[[(4-methylphenyl)sulfonyl]amino]-4-methyl-benzoic acid methyl ester] | 280
4 | CCOc1ccc(S(=O)(=O)Nc2cc(C(=O)OC)ccc2C)cc1 [Compound (V), 3-[[(4-ethoxyphenyl)sulfonyl]amino]-4-methyl-benzoic acid methyl ester] | 160
